The source of these data is patent US8680137B2, “Agents and methods for treating ischemic and other diseases” (Nono Inc., priority 2009, dated 2014).

Usually IC50 stands for the concentration that gives 50% inhibition.

Read-outs that look alike come from different tables or passages of the source.

The test system of assay [1] is HeLa cervical cancer cells. The assay is described as follows: Cancer cell proliferation, HeLa. In kind it is cell-based, human. The conditions noted are these: FIG. 79. As for the experimental part:
(§1) To determine the breadth of efficacy in cancers, we examined the efficacy of a range of TRPM7 inhibitors for their ability to inhibit cell proliferation in cancer cell lines. Representative figures are included as examples.
(§2) Cells (Table 1) were grown to 70% confluency, trypsinized, counted, and seeded in 96-well flat-bottom plates at a final concentration of 2.5×10^3-5.0×10^3 cells/well in growth media containing 5% FBS (Day 0). Other well sizes and cell densities were used successfully as well. Cells were allowed to incubate in growth media for 24 hours to allow for maximum adhesion. Treatment with the test agent began on Day 1 and continued for 72 hours either with or without retreatment. At the 72 hour time point, viable cell numbers are quantified by the CellTiter-Glo® cell viability assay as described above, or using standard MTT, SRB or BrDU assays. Experiments were repeated at least twice with the same concentrations to determine growth inhibitory activity.
Data Collection—For the cell proliferation studies, data from each experiment was collected and expressed as % Cell Growth using the following calculation: % Cell Growth=(ftest/fvehicle)×100 Where ftest is the luminescent signal of the tested sample, and fvehicle is the luminescence of the vehicle in which the drug is dissolved (or appropriate measure for the other viability/proliferation measures). […]

The subject of assay [2] is RXF-393 renal. In words: Cancer cell proliferation, RXF-393. In kind it is cell-based, human. The conditions noted are these: for IC50: Homo sapiens. As for the experimental part: as §1, §2
Data Collection—For the cell proliferation studies, data from each experiment was collected and expressed as % Cell Growth using the following calculation: % Cell Growth=(ftest/fvehicle)×100 Where ftest is the luminescent signal of the tested sample, and fvehicle is the luminescence of the vehicle in which the drug is dissolved (or appropriate measure for the other viability/proliferation measures). Dose response graphs and IC50 values were generated using standard software using the following variable slope equation: […]

In assay [3] the test system is formalin-induced pain behaviors. In words: Formalin induced inflammatory pain in rats. In kind it is in vivo, rat. The conditions noted are these: i.v. administration, formalin 2.5% 50 μL plantar hindpaw.

Regarding `COc1cc2c(cc1OC)C(c1sc3ccccc3c1Cl)=NCC2` [Compound M6], in assay [1], the “proliferation (BrDU incorporation)” value is reported as “significantly reduce proliferation”. The half-inhibitory concentration (IC50) in assay [2] (RXF 393, 72 h, RXF393, Exp 1, 72 hours, read-out: IC50) came to 5.3 µM; in assay [2] (RXF 393, 72 h, RXF393, Exp 2, 72 hours, read-out: IC50), 8.1 µM; in assay [2] (RXF 393, RXF393, mean of Exp 1 and Exp 2, read-out: Mean IC50) it was 6.7 µM. Further, the “Demonstrated Reduction of Proliferation at or below 10 μM Inhibitor concentration” value in assay [2] (RXF-393, >20% inhibition at 48-96 hours, MTT, SRB, luminescence or BrDU) was “RXF-393 renal”.

As for `Cc1c(Cc2ccc(Cl)c(Cl)c2)c(=O)oc2cc(O)ccc12` [Compound M21], in assay [3], the “formalin-induced phase 1 (0-8 min) flinches” value is listed as “little effect” and the “formalin-induced phase 2 pain (9-60 min) flinches” value is recorded as “significantly reduced”.
